The values that follow come from publication PMC8513058, “Synthesis and Evaluation of Novel 1,2,6-Thiadiazinone Kinase Inhibitors as Potent Inhibitors of Solid Tumors” (Molecules, 2021).

On the set-up of data set [1]: method as in PMID 29783765. To be noted: previously assessed; cited from earlier work.
Data set [2] has as its system MCF-7 cells. Kind of data set: Cancer cell line viability screen (alamarBlue), MCF7. To be noted: Homo sapiens, MCF7, 72 h, read-out: IC50 MCF7. For orientation: Resazurin is reduced to fluorescent resorufin, in cell work by metabolically active cells.
Procedure: (§1) This included pancreatic, bladder, prostate, breast, chordoma, and lung cancer cell lines while a skin fibroblast cell line was used as a toxicity control [33, 34, 35, 36].
(§2) DU145 and MCF-7 cells were cultured in MEM medium supplemented with 10% FBS and 1% penicillin/streptomycin. […] Cells were seeded in 384-well plates and were treated with test compound in quadruplicate 24 h after plating. Cell viability was assessed at 72 h using alamarBlue (ThermoFisher, Waltham, MA, USA). […] IC50 values were determined by nonlinear regression using GraphPad PrismTM software (GraphPad Software Inc., San Diego, CA, US).
A further data set concerns U-CH1 cells. Kind of data set: Cancer cell line viability screen (alamarBlue), UCH1. To be noted: UCH1, 72 h, read-out: IC50 UCH1.
For data set [3], the system named is 5637 cells. Kind of data set: Cancer cell line viability screen (alamarBlue), 5637. To be noted: for IC50: 72 h, read-out: IC50 5637.
Procedure: as §1, §2
The next data set deals with U-CH2 cells. Kind of data set: Cancer cell line viability screen (alamarBlue), UCH2. To be noted: UCH2, 72 h, read-out: IC50 UCH2.
Data set [4] has as its system DU145 cells. As to the kind of experiment: Cancer cell line viability screen (alamarBlue), DU145. To be noted: Homo sapiens, DU-145, 72 h, read-out: IC50 DU145.
Procedure: as §1, §2
The subject of data set [5] is PANC-1 cells. Kind of data set: Cancer cell line viability screen (alamarBlue), PANC1. To be noted: Homo sapiens, PANC-1, 72 h, read-out: IC50 PANC1.
Procedure: as §1, §2
Data set [6] relates to kinases in SUM159 cell lysates. As to the kind of experiment: MIBS kinome profiling (MIB-MS competitive displacement). Format: binding. To be noted: 1 μM compound vs DMSO, SUM159 lysate; for kinome profile: 350-400 kinases detected. On the procedure:
We then assessed the kinome profile of thiadiazinones 16, 17, and 26 all at 1 μM using a multiplexed kinase inhibitor bead set and quantitative mass spectrometry for detection of kinase peptides (MIB-MS). The MIB-MS proteomics was able to detect between 350 and 400 kinases in the cell lysates and competitive displacement of specific kinases from the beads was used to determine the kinome profile of the thiadiazinone kinase inhibitors.
Previously described. Briefly, multiplexed inhibitor beads (MIBS) affinity chromatography/MS analysis: SUM159 cells were cultured in a 50:50 mixture of DMEM and Nutrient Mixture F-12 medium (Gibco) supplemented with 5% fetal bovine serum, 1% anti/anti, […] insulin, and […] hydrocortisone. Cells were maintained at 37 °C in a humidified 5% CO2 atmosphere. SUM159 cells were grown to 80% confluency, washed twice with PBS, and harvested by scraping cells in lysis buffer [50 mM HEPES, pH 7.5, 150 mM NaCl, 0.5% Triton X-100, 1 mM EDTA, 1 mM EGTA, 10 mM NaF, 2.5 mM Na3VO4, complete protease inhibitor cocktail (Roche, Basel, Switzerland), phosphatase inhibitor cocktail 2, and 3 (Sigma, St. Louis, MO, USA)]. Lysates were sonicated then clarified by centrifugation at 14000 V g for 15 min at 4 °C. Lysate was then filtered through a […] syringe filter and frozen at −80 °C until use. Protein concentration was quantified using a Bradford assay the day of the experiment. DMSO or the indicated concentration of 16, 17, and 26 were added to lysate containing 4 mg of total protein. Lysates were vortexed briefly then incubated for 30 min on ice. Kinases were affinity purified as previously described. Briefly, lysates were diluted to 1.33 mg mL^−1 with lysis buffer then NaCl concentration brought to 1 M.
Diluted lysates were passed over a mixture of […] of settled beads of each of the following inhibitors conjugated to ECH Sepharose beads: Purvalanol B, PP58, VI-16832, UNC21474A, UNC8088A, and […] of settled beads conjugated to CTx-0294885 and VI-16832 [69]. The kinase inhibitor–bead conjugates were previously equilibrated in high-salt buffer (50 mM HEPES pH 7.5, 1M NaCl, 0.5% Triton X-100, 1 mM EDTA, and 1 mM EGTA). MIBs columns were sequentially washed with high-salt buffer, low-salt buffer (50 mm HEPES pH 7.5, 150 mM NaCl, 0.5% Triton X-100, 1 mM EDTA, and 1 mM EGTA), and SDS buffer (50 mm HEPES pH 7.5, 150 mm NaCl, 0.5% Triton X-100, 1 mm EDTA, 1 mm EGTA, and 0.1% SDS). Proteins were eluted by boiling samples in elution buffer (100 mM Tris·HCl pH 6.8, 0.5% SDS, and 1% β-mercaptoethanol) for 15 min twice. Dithiothreitol (DTT) was added to a final concentration of 5 mm and samples were incubated at 60 °C for 25 min. Samples were then cooled to room temperature on ice and alkylated by adding iodoacetamide to a final concentration of 20 mm for 30 min in the dark at room temperature. Samples were then concentrated in 10K Amicon Ultra centrifugal concentrators (Millipore, Burlington, MA, USA) followed by methanol and chloroform precipitation of proteins. The final protein pellets were re-suspended in 50 mM HEPES pH 8.0 and incubated with trypsin at 37 °C overnight. Residual detergent was removed by three sequential ethyl acetate extractions then desalted using Pierce C18 spin columns (Thermo Scientific, Waltham, MA, USA) according to the manufacturer’s protocol.

For data set [7], the system named is A-431 cells. As to the kind of experiment: Cancer cell line viability screen (alamarBlue), A431. To be noted: Homo sapiens, A-431, 72 h, read-out: IC50 A431.
Procedure: as §1
(§3) Cells were seeded in 384-well plates and were treated with test compound in quadruplicate 24 h after plating. Cell viability was assessed at 72 h using alamarBlue (ThermoFisher, Waltham, MA, USA). […] IC50 values were determined by nonlinear regression using GraphPad PrismTM software (GraphPad Software Inc., San Diego, CA, US).
Data set [8] relates to WS-1 cell line. Kind of data set: Toxicity control viability screen (alamarBlue), WS-1 skin fibroblasts. To be noted: WS1, 72 h, read-out: IC50 WS-1.
Procedure: as §1, §2
Data set [9] in a line: Chemical stability of thiadiazinones under aqueous, nucleophile, oxidizing and reducing conditions. Format: physicochemical. To be noted: tested similarly to 3,5-bis(phenylamino)-4H-1,2,6-thiadiazin-4-one: neutral, acidic, slightly basic aqueous, amine or thiol nucleophiles. The source says: It is important to note that the stability of dianilinothiadiazinones in biological systems has previously been assessed.

In data set [10] the test system is DU145 cells. Further details: method as in PMID 28373427. To be noted: positive control; cited from earlier work.
The subject of data set [11] is WS-1 cell line. To be noted: read-out: IC50 WS-1, positive control; cited from earlier work.
Data set [12] relates to MCF-7 cells. To be noted: read-out: IC50 MCF7, positive control; cited from earlier work.
Data set [13] has as its system A-431 cells. To be noted: read-out: IC50 A431, positive control; cited from earlier work.
Data set [14] relates to PANC-1 cells. The arrangement: method as in PMID 22487525. To be noted: positive control; read-out: IC50 PANC1, positive control; cited from earlier work.
Data set [15] has as its system 5637 cells. Further details: method as in PMID 23887605. To be noted: positive control; cited from earlier work.

Like-named read-outs stand apart in the source and are kept apart here.

Procedure for U-CH1 cells: as §1, §3
Procedure for U-CH2 cells: as §1, §3

Consider `O=c1c(Nc2ccccc2)nsnc1Nc1ccccc1` [3,5-Bis(phenylamino)-4H-1,2,6-thiadiazin-4-one], for which the stability result in [1] is “stable to neutral, acidic, or slightly basic aqueous conditions, the presence of amine or thiol nucleophiles, and oxidizing and reducing conditions”.

`O=c1c(Nc2cccc(O)c2)nsnc1-c1ccnc2[nH]ccc12` [Compound 16, 3-[(3-Hydroxyphenyl)amino]-5-(1H-pyrrolo[2,3-b]pyridin-4-yl)-4H-1,2,6-thiadiazin-4-one] gave a melting point of 326 to 327 °C. In addition, the IC50 with MCF-7 cells [2] was 18 µM. Further, in the data set on U-CH1 cells, the IC50 was 46 µM. Moreover, in the data set with 5637 cells [3] (16 relative to methoxy analogue 15), the “increase in potency on the bladder cancer cell line” value came out at 10 fold. The IC50 with 5637 cells [3] worked out at 1.6 µM. The IC50 in the data set with U-CH2 cells was greater than 100 µM. In addition, the IC50 in the data set with DU145 cells [4] was determined as 41 µM. The IC50 in the data set on PANC-1 cells [5] came to 33 µM. Moreover, in [6], the “kinases competitively displaced from the beads (hits)” value is “weak interactions on MAP4K5, MAP4K3, PRKCD, and PKN1 just below the threshold”; the kinome profile result is “narrow spectrum kinome profile”. Also, the IC50 in the data set with A-431 cells [7] is greater than 100 µM. In the data set on WS-1 cell line [8], the IC50 is greater than 100 µM. Besides, the stability result in data set [9] is given as “the same results”.

Turning to `O=c1c(Nc2ccc3[nH]ncc3c2)nsnc1-c1ccnc(F)c1` [Compound 26, 5-(2-Fluoropyridin-4-yl)-3-[(1H-indazol-5-yl)amino]-4H-1,2,6-thiadiazin-4-one], the melting point is 280 °C (dec.). Further, the IC50 in the data set with MCF-7 cells [2] came out at 50 µM. For the same compound, the IC50 in the data set on U-CH1 cells stood at 84 µM. For the same compound, the half-maximal inhibitory concentration (IC50) with 5637 cells [3] worked out at 8.4 µM. The IC50 in the data set with U-CH2 cells was greater than 100 µM. For the same compound, in the data set on DU145 cells [4], the IC50 was 5.7 µM. The IC50 with PANC-1 cells [5] is greater than 100 µM. In data set [6], the “kinases competitively displaced from the beads (hits)” value was “showing affinity for ACVR1B, ACVR2A, and STK35”; the kinome profile result was “narrow spectrum kinome profile but was a weak inhibitor”. In addition, the IC50 in the data set on A-431 cells [7] is greater than 100 µM. In the data set on WS-1 cell line [8], the IC50 is greater than 100 µM.

With `CC(=O)O[C@@]12CO[C@@H]1C[C@H](O)[C@@]1(C)C(=O)[C@H](O)C3=C(C)[C@@H](OC(=O)[C@H](O)[C@@H](NC(=O)OC(C)(C)C)c4ccccc4)C[C@@](O)([C@@H](OC(=O)c4ccccc4)[C@H]21)C3(C)C` [docetaxel], the IC50 with DU145 cells [10] is 0.005 µM.

Turning to `CS(=O)(=O)CCNCc1ccc(-c2ccc3ncnc(Nc4ccc(OCc5cccc(F)c5)c(Cl)c4)c3c2)o1` [lapatinib], the IC50 with WS-1 cell line [11] was 13 µM; in the data set with MCF-7 cells [12], 6.3 µM; in the data set with A-431 cells [13] it was 0.1 µM.

Take `Cc1[nH]c2ccccc2c1CCNCc1ccc(/C=C/C(=O)NO)cc1` [panobinostat]: in the data set with PANC-1 cells [14], the IC50 is 1 µM.

For the compound `Cc1ccc(Nc2nccc(N(C)c3ccc4c(C)n(C)nc4c3)n2)cc1S(N)(=O)=O` [pazopanib], the IC50 in the data set on 5637 cells [15] is 15 µM.

As usually defined, the IC50 is the midpoint of a concentration-inhibition curve. By melting point is commonly meant the temperature, or range, at which the solid turns liquid.
